Experimental findings from ChEMBL document CHEMBL2074144, “Pharmacokinetics of erythromycin in rabbit corneas after single-dose infusion: role of P-glycoprotein as a barrier to in vivo ocular drug absorption” (J Pharmacol Exp Ther, 2004) are described below.

The target in this series is ATP-dependent translocase ABCB1 (Homo sapiens, UniProt P08183). Kind of series: TP_TRANSPORTER: transepithelial transport in MDR1-expressing MDCK cells. The series is classed as functional, cell-based. As to conditions: dog.
ATP-dependent translocase ABCB1, sequence (P08183 whole entry): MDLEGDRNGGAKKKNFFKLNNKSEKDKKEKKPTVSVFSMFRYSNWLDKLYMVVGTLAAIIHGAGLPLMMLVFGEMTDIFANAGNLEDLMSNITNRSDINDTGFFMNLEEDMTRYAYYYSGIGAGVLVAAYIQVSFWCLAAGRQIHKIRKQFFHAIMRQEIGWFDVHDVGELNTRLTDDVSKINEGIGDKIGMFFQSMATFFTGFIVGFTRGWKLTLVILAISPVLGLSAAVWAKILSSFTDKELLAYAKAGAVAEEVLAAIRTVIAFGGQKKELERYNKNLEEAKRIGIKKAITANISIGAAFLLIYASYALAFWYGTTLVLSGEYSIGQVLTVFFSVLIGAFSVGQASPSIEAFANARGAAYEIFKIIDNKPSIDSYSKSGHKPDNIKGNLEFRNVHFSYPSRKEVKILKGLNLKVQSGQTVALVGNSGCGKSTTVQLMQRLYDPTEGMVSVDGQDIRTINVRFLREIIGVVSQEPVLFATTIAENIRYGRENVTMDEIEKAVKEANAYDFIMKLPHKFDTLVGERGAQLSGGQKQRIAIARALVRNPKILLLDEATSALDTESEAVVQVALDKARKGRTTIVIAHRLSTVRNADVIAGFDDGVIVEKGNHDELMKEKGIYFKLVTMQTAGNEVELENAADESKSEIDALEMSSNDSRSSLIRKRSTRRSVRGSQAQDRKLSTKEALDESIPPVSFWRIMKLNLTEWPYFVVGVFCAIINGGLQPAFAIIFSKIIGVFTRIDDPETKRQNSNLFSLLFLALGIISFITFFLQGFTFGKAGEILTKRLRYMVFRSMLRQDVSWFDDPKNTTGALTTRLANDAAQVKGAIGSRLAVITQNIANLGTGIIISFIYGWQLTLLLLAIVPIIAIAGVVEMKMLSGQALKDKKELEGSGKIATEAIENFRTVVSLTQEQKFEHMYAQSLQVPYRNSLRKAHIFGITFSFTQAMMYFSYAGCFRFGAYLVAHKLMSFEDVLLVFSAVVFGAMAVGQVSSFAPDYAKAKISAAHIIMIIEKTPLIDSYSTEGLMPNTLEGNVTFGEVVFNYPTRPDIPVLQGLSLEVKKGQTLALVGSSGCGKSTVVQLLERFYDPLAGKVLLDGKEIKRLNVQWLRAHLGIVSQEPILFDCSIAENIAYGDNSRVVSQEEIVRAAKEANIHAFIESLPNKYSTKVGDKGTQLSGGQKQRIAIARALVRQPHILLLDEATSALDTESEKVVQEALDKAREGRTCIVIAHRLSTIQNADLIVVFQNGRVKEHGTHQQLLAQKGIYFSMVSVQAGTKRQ

As for `CC[C@H]1OC(=O)[C@H](C)[C@@H](O[C@H]2C[C@@](C)(OC)[C@@H](O)[C@H](C)O2)[C@H](C)[C@@H](O[C@@H]2O[C@H](C)C[C@H](N(C)C)[C@H]2O)[C@](C)(OC)C[C@@H](C)C(=O)[C@H](C)[C@@H](O)[C@]1(C)O` [CLARITHROMYCIN], the Activity result was “substrate [+]”.
